System: MnG4C1 (DNA, G4) AGGGGGGGAGTTAGGGCGCACGTTAGGGGTGCTATTAGGG
Experiment: ThT fluorescence light-up, 492 nm
Settings: 50 mM Tris-HCl pH 7.5, room temperature, 3 µM ThT, 1 mM aptamer

- binding (K+ 0-30 mM): yes
- binding (Mn2+ 0-100 µM): yes
SMILES: Cc1ccc2c(c1)sc(-c1ccc(N(C)C)cc1)[n+]2C
